Laboratory results from ChEMBL document CHEMBL1201862, “PubChem BioAssay data set” (2004).
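Protocol summary: plate cells (96-well), add compound at 5 concentrations, incubate 48 h, interpolate endpoints linearly. GI50 = concentration required for 50% inhibition of growth.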 Active and inactive are the calls of the source. No stated cut-off is given here; in the data, active = GI50 up to about 1.1 µM and inactive = higher.

Columns and labels:
Assay in all cases: NCI tumour cell line growth inhibition, 48 h
[1] = test system: HOP-62
[2] = test system: COLO 205
[3] = test system: SK-MEL-28
[4] = test system: NCI-H522
[5] = test system: HCT-15
[6] = test system: OVCAR-8
[7] = test system: A498
[8] = test system: HT-29
[9] = test system: NCI-H460
[10] = test system: 786-0
[11] = test system: SF-295
[12] = test system: A549
[13] = test system: PC-3
[14] = test system: OVCAR-5
[15] = test system: SK-OV-3
[16] = test system: UACC-62
[17] = test system: NCI-H23
[18] = test system: OVCAR-3
[19] = test system: LOX IMVI
[20] = test system: ACHN
[21] = test system: MCF7
[22] = test system: U-251
[23] = test system: Hs-578T
[24] = test system: RXF 393
[25] = test system: BT-549
[26] = test system: MDA-MB-435
[27] = test system: NCI-H226
[28] = test system: SNB-19
[29] = test system: Malme-3M
[30] = test system: CAKI-1
[31] = test system: UACC-257
[32] = test system: HL-60
[33] = test system: SF-539
[34] = test system: RPMI-8226
[35] = test system: MDA-MB-231
[36] = test system: IGROV-1
[37] = test system: T47D
[38] = test system: OVCAR-4
[39] = test system: TK-10
[40] = test system: SK-MEL-5
[41] = test system: HOP-92
[42] = test system: HCC 2998
[43] = test system: MOLT-4
[44] = test system: CCRF-CEM
[45] = test system: SN12C
[46] = test system: SNB-75
[47] = test system: K562
[48] = test system: HCT-116
[49] = test system: SR
[50] = test system: SF-268
[51] = test system: KM12
[52] = test system: EKVX
[53] = test system: SK-MEL-2
[54] = test system: UO-31
[55] = test system: SW-620
[56] = test system: MDA-N
[57] = test system: M14
[58] = test system: DU-145
[59] = test system: NCI/ADR-RES

CCC1=C(C=O)c2cc3[nH]c(cc4nc(c5c6[nH]c(cc1n2)c(C)c6C(=O)C5C(=O)OC)C(CCC(=O)OC)C4C)c(C)c3CC (stereo not drawn) was tested, and the GI50 [1] was > 100 µM (inactive), the GI50 [2] was > 100 µM (inactive) and the GI50 [3] was > 100 µM (inactive). For the same compound, the GI50 [4] was > 100 µM (inactive), the GI50 [5] was greater than 100 µM and the GI50 [6] was > 100 µM (inactive). The GI50 [7] was > 100 µM (inactive), the GI50 [8] was > 100 µM (inactive) and the GI50 [9] was > 100 µM (inactive). The GI50 [10] was > 100 µM (inactive), the GI50 [11] was > 100 µM (inactive) and the GI50 [12] was > 100 µM (inactive). The GI50 [13] was > 100 µM (inactive), the GI50 [14] was > 100 µM (inactive) and the GI50 [15] was > 100 µM (inactive). For the same compound, the GI50 [16] was > 100 µM (inactive), the GI50 [17] was > 100 µM (inactive) and the GI50 [18] was > 100 µM (inactive). The GI50 [19] was > 100 µM (inactive), the GI50 [20] was > 100 µM (inactive) and the GI50 [21] was > 100 µM (inactive). The GI50 [22] was > 100 µM (inactive), the GI50 [23] was 88.1 µM (inactive) and the GI50 [24] was > 100 µM (inactive). The GI50 [25] was > 100 µM (inactive), the GI50 [26] was > 100 µM (inactive) and the GI50 [27] was > 100 µM (inactive). The GI50 [28] was > 100 µM (inactive), the GI50 [29] was > 100 µM (inactive) and the GI50 [30] was > 100 µM (inactive). The GI50 [31] was > 100 µM (inactive), the GI50 [32] was > 100 µM (inactive) and the GI50 [33] was > 100 µM (inactive). For the same compound, the GI50 [34] was > 100 µM (inactive), the GI50 [35] was > 100 µM (inactive) and the GI50 [36] was > 100 µM (inactive). For the same compound, the GI50 [37] was > 100 µM (inactive), the GI50 [38] was > 100 µM (inactive) and the GI50 [39] was > 100 µM (inactive). The GI50 [40] was > 100 µM (inactive), the GI50 [41] was > 100 µM (inactive) and the GI50 [42] was > 100 µM (inactive). For the same compound, the GI50 [43] was > 100 µM (inactive), the GI50 [44] was > 100 µM (inactive) and the GI50 [45] was > 100 µM (inactive). For the same compound, the GI50 [46] was > 100 µM (inactive), the GI50 [47] was > 100 µM (inactive) and the GI50 [48] was > 100 µM (inactive). The GI50 [49] was > 100 µM (inactive), the GI50 [50] was > 100 µM (inactive) and the GI50 [51] was > 100 µM (inactive). For the same compound, the GI50 [52] was > 100 µM (inactive), the GI50 [53] was > 100 µM (inactive) and the GI50 [54] was > 100 µM (inactive). For the same compound, the GI50 [55] was > 100 µM (inactive), the GI50 [56] was > 100 µM (inactive) and the GI50 [57] was > 100 µM (inactive). The GI50 [58] was > 100 µM (inactive).
In the case of CC(C)(C)[Si](C)(C)OCCc1ccccc1C1CC2(S(=O)(=O)c3ccccc3)ON1CC2S(=O)(=O)c1ccccc1 (stereo not drawn), the GI50 [1] is reported as > 100 µM (inactive), the GI50 [2] is reported as > 100 µM (inactive) and the GI50 [3] is reported as > 100 µM (inactive). For the same compound, the GI50 [6] was > 100 µM (inactive), the GI50 [7] was > 100 µM (inactive) and the GI50 [8] was > 100 µM (inactive). For the same compound, the GI50 [9] was > 100 µM (inactive), the GI50 [10] was > 100 µM (inactive) and the GI50 [11] was > 100 µM (inactive). For the same compound, the GI50 [12] was > 100 µM (inactive), the GI50 [14] was > 100 µM (inactive) and the GI50 [15] was > 100 µM (inactive). For the same compound, the GI50 [16] was > 100 µM (inactive), the GI50 [17] was > 100 µM (inactive) and the GI50 [18] was > 100 µM (inactive). The GI50 [20] was > 100 µM (inactive), the GI50 [21] was 60.5 µM (inactive) and the GI50 [22] was > 100 µM (inactive). For the same compound, the GI50 [23] was > 100 µM (inactive), the GI50 [24] was > 100 µM (inactive) and the GI50 [25] was > 100 µM (inactive). For the same compound, the GI50 [26] was > 100 µM (inactive), the GI50 [27] was > 100 µM (inactive) and the GI50 [28] was > 100 µM (inactive). For the same compound, the GI50 [31] was > 100 µM (inactive), the GI50 [33] was > 100 µM (inactive) and the GI50 [35] was > 100 µM (inactive). For the same compound, the GI50 [36] was > 100 µM (inactive), the GI50 [37] was < 0.01 µM (active) and the GI50 [38] was > 100 µM (inactive). For the same compound, the GI50 [59] was > 100 µM (inactive), the GI50 [39] was > 100 µM (inactive) and the GI50 [40] was > 100 µM (inactive). For the same compound, the GI50 [42] was > 100 µM (inactive), the GI50 [43] was > 100 µM (inactive) and the GI50 [44] was > 100 µM (inactive). For the same compound, the GI50 [45] was > 100 µM (inactive), the GI50 [46] was > 100 µM (inactive) and the GI50 [47] was > 100 µM (inactive). The GI50 [48] was > 100 µM (inactive), the GI50 [50] was > 100 µM (inactive) and the GI50 [51] was > 100 µM (inactive). The GI50 [52] was > 100 µM (inactive), the GI50 [53] was > 100 µM (inactive) and the GI50 [54] was > 100 µM (inactive). The GI50 [55] was > 100 µM (inactive), the GI50 [56] was > 100 µM (inactive) and the GI50 [57] was > 100 µM (inactive). For the same compound, the GI50 [58] was > 100 µM (inactive).
With Cn1nc2ccc([N+](=O)[O-])c(Cn3nnc4ccccc43)c2n1 the GI50 [1] was > 100 µM (inactive), the GI50 [2] was > 100 µM (inactive) and the GI50 [3] was > 100 µM (inactive). For the same compound, the GI50 [5] was greater than 100 µM, the GI50 [6] was > 100 µM (inactive) and the GI50 [7] was > 100 µM (inactive). For the same compound, the GI50 [8] was > 100 µM (inactive), the GI50 [9] was > 100 µM (inactive) and the GI50 [10] was > 100 µM (inactive). For the same compound, the GI50 [11] was > 100 µM (inactive), the GI50 [12] was > 100 µM (inactive) and the GI50 [14] was > 100 µM (inactive). For the same compound, the GI50 [15] was > 100 µM (inactive), the GI50 [16] was > 100 µM (inactive) and the GI50 [17] was > 100 µM (inactive). The GI50 [18] was > 100 µM (inactive), the GI50 [19] was 82.8 µM (inactive) and the GI50 [20] was > 100 µM (inactive). The GI50 [21] was > 100 µM (inactive), the GI50 [22] was > 100 µM (inactive) and the GI50 [23] was 93.1 µM (inactive). The GI50 [24] was > 100 µM (inactive), the GI50 [25] was > 100 µM (inactive) and the GI50 [26] was 90.8 µM (inactive). For the same compound, the GI50 [27] was > 100 µM (inactive), the GI50 [28] was > 100 µM (inactive) and the GI50 [29] was > 100 µM (inactive). The GI50 [30] was > 100 µM (inactive), the GI50 [31] was > 100 µM (inactive) and the GI50 [32] was > 100 µM (inactive). For the same compound, the GI50 [33] was > 100 µM (inactive), the GI50 [34] was > 100 µM (inactive) and the GI50 [35] was > 100 µM (inactive). The GI50 [36] was > 100 µM (inactive), the GI50 [37] was > 100 µM (inactive) and the GI50 [38] was > 100 µM (inactive). For the same compound, the GI50 [59] was 71 µM (inactive), the GI50 [39] was > 100 µM (inactive) and the GI50 [40] was 79.4 µM (inactive). For the same compound, the GI50 [41] was > 100 µM (inactive), the GI50 [42] was > 100 µM (inactive) and the GI50 [43] was > 100 µM (inactive). For the same compound, the GI50 [44] was > 100 µM (inactive), the GI50 [45] was > 100 µM (inactive) and the GI50 [46] was 70.3 µM (inactive). For the same compound, the GI50 [47] was > 100 µM (inactive), the GI50 [48] was > 100 µM (inactive) and the GI50 [50] was > 100 µM (inactive). For the same compound, the GI50 [51] was 76.7 µM (inactive), the GI50 [52] was 87.9 µM (inactive) and the GI50 [53] was > 100 µM (inactive). The GI50 [54] was > 100 µM (inactive), the GI50 [55] was > 100 µM (inactive) and the GI50 [56] was 88.3 µM (inactive). For the same compound, the GI50 [57] was > 100 µM (inactive) and the GI50 [58] was > 100 µM (inactive).
